Test results published in patent publication US20250041437A1, “HUMANIZED MUC1 ANTIBODY AND ANTIBODY DRUG CONJUGATE” (Sun Pharma Advanced Research Company Limited, priority 2023, published 2025).
Where a SMILES comes first, the peptide text is derived from it. [ ]: non-standard residue; d: D form. The star is where a group is joined. Dolaproine = CO[C@@H]([C@@H]1CCCN1)[C@@H](C)C(=O)O; Dil = CC[C@H](C)[C@H](NC)[C@@H](CC(=O)O)OC; X1 = C[C@@H](N*)[C@@H](O)c1ccccc1; NMeV = CN[C@H](C(=O)O)C(C)C

Experiments:
[1] = test system: T47D breast carcinoma cells; assay: Growth inhibition of human cancer cell lines, T47D; type: cell-based; settings: free MMAE
[2] = Single dose pharmacokinetics, COLO357 tumor bearing mouse, IV; type: in vivo
Protocol: The objective of this study was to evaluate serum, tumor and liver pharmacokinetics of TAB, CAB and uMMAE following 3 mg/kg single IV administration of M5LM4-ADC and pharmacokinetics of MMAE following 0.06 mg/kg single IV administration of MMAE alone in a COLO357 tumor bearing mouse model.
The blood samples were collected from the mouse at 0.083, 0.5, 1, 2, 4, 8, 24, 48, 72, 96, 168 and 336 hours post-dose (n=3 mice/time point; sparse sampling design) through retro-orbital plexuses and serum was immediately harvested. At 24, 48, 72, 96, 168 and 336 hour time-points, the tumor and liver were collected. Analysis of total antibody (TAB) and conjugated antibody (CAB) was done by a fit for purpose ELISA based method and analysis of free payload (MMAE) was done by a fit for purpose LC-MS/MS based method. Pharmacokinetic analysis was performed by the non-compartmental analysis tool of Phoenix WinNonlin® software.

[3] = test system: SKOV3 derived xenograft; settings: mouse, in vivo
[4] = test system: MCF7 derived xenograft; settings: mouse, in vivo
[5] = test system: BxPC3 pancreatic carcinoma cells; assay: Growth inhibition of human cancer cell lines, BxPC3; settings: read-out: MMAE IC50; BxPC3, free MMAE
[6] = test system: COLO-357 pancreatic carcinoma cells; assay: Growth inhibition of human cancer cell lines, COLO-357; settings: read-out: MMAE IC50; COLO-357, free MMAE
[7] = MMAE, MMAE 0.06 mg/kg IV, liver
[8] = MMAE, MMAE 0.06 mg/kg IV, serum
[9] = MMAE, MMAE 0.06 mg/kg IV, tumor
[10] = single IV MMAE, COLO357 tumor bearing mice

## CC[C@H](C)[C@@H]([C@@H](CC(=O)N1CCC[C@H]1[C@H](OC)[C@@H](C)C(=O)N[C@H](C)[C@@H](O)c1ccccc1)OC)N(C)C(=O)[C@@H](NC(=O)[C@@H](NC)C(C)C)C(C)C [Free MMAE, monomethyl auristatin E, reference compound] (H-[NMeV]V[Dil][Dolaproine]-X1)
[1]
  IC50: 0.07 nM
[2]; [7]
  AUC0-336: 0.19 µM·h
  Cmax: 1.5 nM
  T1/2: 182 h
[2]; [8]
  AUC0-24: 0.018 µM·h
  AUC0-336: 0.021 µM·h
  AUCINF: 0.021 µM·h
  CL: 64 mL/min/kg
  Cmax: 8 nM
  T1/2: 5 h
  Tmax: 4.8 min
  Vss: 34 L/kg
[2]; [9]
  AUC0-336: 1.391 µM·h
  AUC ratio (Kp): 66
  Cmax: 11 nM
  T1/2: 154 h
[2]; [10]
  tumor exposure higher than in serum: 66 fold
  tumor exposure higher than in the liver: 7 fold
[3]
  mortality: 3 of 8
  tumor growth inhibition (TGI): 106±10%
[4]
  mortality: 3 of 8
[5]
  IC50: 0.02 nM
[6]
  IC50: 0.16 nM
